{
  "source": "ChEMBL document CHEMBL5136989",
  "about": "“A review on the treatment of multiple myeloma with small molecular agents in the past five years” (Eur J Med Chem, 2022)",
  "key": {"[1]": {"assay": "Cytotoxicity against human multiple myeloma cells by WST-1 assay", "type": "functional, cell-based", "details": "Multiple myeloma cell"}, "[2]": {"assay": "Immunomodulatory activity in human MM cells", "type": "functional, cell-based", "details": "multiple myeloma cell"}, "[3]": {"assay": "Induction of mitotic arrest in human multiple myeloma cells", "type": "functional, cell-based", "details": "multiple myeloma cell"}, "Proteasome": {"test_system": "Proteasome", "assay": "Inhibition of proteasome (unknown origin)", "type": "subcellular, Homo sapiens"}, "[4]": {"test_system": "Multiple myeloma cancer stem cell", "assay": "Cytotoxicity against human Myeloma-stem like cells", "type": "functional, cell-based"}, "[5]": {"assay": "Anticancer activity in human multiple myeloma cells", "type": "functional, cell-based", "details": "Multiple myeloma cell"}},
  "data": [
    {"smiles": "CC(=O)c1cc([N+](=O)[O-])c(Sc2cccc(Cl)c2Cl)s1", "values": [
      {"measurement": "IC50", "setting": "[1]", "result": 6000, "unit": "nM"}
    ]},
    {"smiles": "CN(CCCNC(=O)c1ccc2nc3c(c(Cl)c2c1)CCCC3)Cc1ccccc1", "values": [
      {"measurement": "IC50", "setting": "[1]", "result": 28100, "unit": "nM"}
    ]},
    {"smiles": "CCN(CCCNC(=O)c1ccc2nc3c(c(Cl)c2c1)CCCC3)Cc1ccccc1", "values": [
      {"measurement": "IC50", "setting": "[1]", "result": 22600, "unit": "nM"}
    ]},
    {"smiles": "N#C/C(=C/c1cccc(Br)n1)C(=O)NCc1cccc(CNC(=O)/C(C#N)=C\\c2cccc(Br)n2)c1", "values": [
      {"measurement": "IC50", "setting": "[1]", "result": 240, "unit": "nM"}
    ]},
    {"smiles": "CCc1c(-c2ccc3[nH]ncc3c2)cnc(N)c1-c1ccc(O)cc1", "values": [
      {"measurement": "IC50", "setting": "[1]", "result": 750, "unit": "nM"}
    ]},
    {"smiles": "CCc1c(-c2ccc(C(=O)NC)nc2)cnc(N)c1-c1ccc(O)cc1", "values": [
      {"measurement": "IC50", "setting": "[1]", "result": 1340, "unit": "nM"}
    ]},
    {"smiles": "Cc1ccc(NC(=O)NCc2ccc3c(c2)CN(C2CCC(=O)NC2=O)C3=O)cc1Cl", "note": "(stereo not drawn)", "values": [
      {"measurement": "IC50", "setting": "[2]", "result": 0.3, "unit": "nM"}
    ]},
    {"smiles": "C=CC(=O)N1CC/C(=C\\c2ccc(F)c([N+](=O)[O-])c2)C(=O)/C(=C/c2ccc(F)c([N+](=O)[O-])c2)C1", "values": [
      {"measurement": "IC50", "setting": "[1]", "result": 43, "unit": "nM"}
    ]},
    {"smiles": "CN(C)c1ccccc1CN1CCCN(Cc2ccccc2N(C)C)C1c1ccncc1", "values": [
      {"measurement": "IC50", "setting": "[3]", "result": 5000, "unit": "nM"}
    ]},
    {"smiles": "Cc1ccc(CN(CC(O)COc2cccc3[nH]ccc23)C(C)(C)C)cc1", "note": "(stereo not drawn)", "values": [
      {"measurement": "IC50", "setting": "[3]", "result": 28300, "unit": "nM"}
    ]},
    {"smiles": "CCCSc1nc(NCCN)c2nnn(Cc3ccc(Cl)cc3)c2n1", "values": [
      {"measurement": "IC50", "setting": "[1]", "result": 1100, "unit": "nM"}
    ]},
    {"smiles": "O=C1c2ccccc2C(=O)c2oc(-c3cccnc3)nc21", "values": [
      {"measurement": "IC50", "setting": "[1]", "result": 100, "unit": "nM"}
    ]},
    {"smiles": "CC(NC(=O)/C(C#N)=C/c1cccc(/C=C(\\C#N)C(=O)NC(C)c2ccccc2)c1)c1ccccc1", "note": "(stereo not drawn)", "values": [
      {"measurement": "IC50", "setting": "[1]", "result": 400, "unit": "nM"}
    ]},
    {"smiles": "CS(=O)(=O)N1CCN(C(=S)Nc2ccc([N+](=O)[O-])cc2)CC1", "values": [
      {"measurement": "IC50", "setting": "[1]", "result": 33900, "unit": "nM"}
    ]},
    {"smiles": "CC(=O)N[C@@H](CCc1ccccc1)C(=O)N[C@@H](CC(C)C)C(=O)N[C@@H](Cc1ccccc1)C(=O)N[C@@H](CC(C)C)C(=O)[C@]1(C)CO1", "values": [
      {"measurement": "IC50", "setting": "Proteasome", "result": 260, "unit": "nM"}
    ]},
    {"smiles": "CCCC(NC(=O)/C(C#N)=C/c1cccc(Br)n1)c1ccccc1", "note": "(stereo not drawn)", "values": [
      {"measurement": "IC50", "setting": "[1]", "result": 1600, "unit": "nM"}
    ]},
    {"smiles": "CN(C)CCC(CSc1ccccc1)Nc1ccc(S(=O)(=O)NC(=O)c2ccc(N3CCN(Cc4ccccc4-c4ccc(Cl)cc4)CC3)cc2)cc1[N+](=O)[O-]", "note": "(stereo not drawn)", "values": [
      {"measurement": "IC50", "setting": "[1]", "result": "< 500", "unit": "nM"}
    ]},
    {"smiles": "C=CCn1c(=O)c2cnc(Nc3ccc(N4CCN(C)CC4)cc3)nc2n1-c1cccc(C(C)(C)O)n1", "note": "[ADAVOSERTIB]", "values": [
      {"measurement": "IC50", "setting": "[4]", "result": 310, "unit": "nM"}
    ]},
    {"smiles": "CC(C)C[C@H](NC(=O)[C@H](Cc1ccccc1)NC(=O)c1cnccn1)B(O)O", "note": "[BORTEZOMIB]", "values": [
      {"measurement": "IC50", "setting": "Proteasome", "result": "[…]"}
    ]},
    {"smiles": "CC(C)C[C@H](NC(=O)[C@H](CCc1ccccc1)NC(=O)CN1CCOCC1)C(=O)N[C@@H](Cc1ccccc1)C(=O)N[C@@H](CC(C)C)C(=O)[C@@]1(C)CO1", "note": "[CARFILZOMIB]", "values": [
      {"measurement": "IC50", "setting": "Proteasome", "result": 33, "unit": "nM"}
    ]},
    {"smiles": "CC[C@H](C)[C@H](NC(=O)[C@H]([C@@H](C)CC)N(C)C(C)=O)C(=O)N[C@H](C(=O)N[C@@H](CC(C)C)C(=O)[C@@]1(C)CO1)[C@@H](C)O", "note": "[EPOXOMYCIN]", "values": [
      {"measurement": "IC50", "setting": "Proteasome", "result": 261, "unit": "nM"}
    ]},
    {"smiles": "CON(C)C(=O)N1N=C(c2cc(F)ccc2F)S[C@@]1(CCCN)c1ccccc1", "note": "[FILANESIB]", "values": [
      {"measurement": "IC50", "setting": "[3]", "result": 6.1, "unit": "nM"}
    ]},
    {"smiles": "O=C1CC[C@H](N2Cc3c(OCc4ccc(CN5CCOCC5)cc4)cccc3C2=O)C(=O)N1", "note": "[IBERDOMIDE]", "values": [
      {"measurement": "IC50", "setting": "[2]", "result": 13, "unit": "nM"}
    ]},
    {"smiles": "CC(C)C[C@H](NC(=O)CNC(=O)c1cc(Cl)ccc1Cl)B(O)O", "note": "[IXAZOMIB]", "values": [
      {"measurement": "IC50", "setting": "Proteasome", "result": 5, "unit": "nM"}
    ]},
    {"smiles": "Nc1cccc2c1CN(C1CCC(=O)NC1=O)C2=O", "note": "(stereo not drawn) [LENALIDOMIDE]", "values": [
      {"measurement": "IC50", "setting": "[2]", "result": 81, "unit": "nM"}
    ]},
    {"smiles": "O=C(CBr)N1CC([N+](=O)[O-])([N+](=O)[O-])C1", "note": "[NIBROZETONE]", "values": [
      {"measurement": "IC50", "setting": "[1]", "result": 1250, "unit": "nM"}
    ]},
    {"smiles": "O=[N+]([O-])c1ccc(O)c2ncccc12", "note": "[NITROXOLINE]", "values": [
      {"measurement": "IC50", "setting": "[3]", "result": 5250, "unit": "nM"}
    ]},
    {"smiles": "NS(=O)(=O)OC[C@@H]1C[C@@H](n2ccc3c(N[C@H]4CCc5ccccc54)ncnc32)C[C@@H]1O", "note": "[PEVONEDISTAT]", "values": [
      {"measurement": "IC50", "setting": "Proteasome", "result": 4, "unit": "nM"}
    ]},
    {"smiles": "c1cc(CN2CCCNCCNCCCNCC2)ccc1CN1CCCNCCNCCCNCC1", "note": "[PLERIXAFOR]", "values": [
      {"measurement": "IC50", "setting": "[3]", "result": 27, "unit": "nM"}
    ]},
    {"smiles": "Nc1cccc2c1C(=O)N(C1CCC(=O)NC1=O)C2=O", "note": "(stereo not drawn) [POMALIDOMIDE]", "values": [
      {"measurement": "IC50", "setting": "[2]", "result": 35, "unit": "nM"}
    ]},
    {"smiles": "O=C(/C=C\\n1cnc(-c2cc(C(F)(F)F)cc(C(F)(F)F)c2)n1)NNc1cnccn1", "note": "[SELINEXOR]", "values": [
      {"measurement": "IC50", "setting": "[5]", "result": 44, "unit": "nM"}
    ]},
    {"smiles": "O=C1CCC(N2C(=O)c3ccccc3C2=O)C(=O)N1", "note": "(stereo not drawn) [THALIDOMIDE]", "values": [
      {"measurement": "IC50", "setting": "[2]", "result": 194000, "unit": "nM"}
    ]},
    {"smiles": "CC1(C)CCC(CN2CCN(c3ccc(C(=O)NS(=O)(=O)c4ccc(NCC5CCOCC5)c([N+](=O)[O-])c4)c(Oc4cnc5[nH]ccc5c4)c3)CC2)=C(c2ccc(Cl)cc2)C1", "note": "[VENETOCLAX]", "values": [
      {"measurement": "IC50", "setting": "[5]", "result": 26.7, "unit": "nM"}
    ]}
  ]
}
